Source: ChEMBL document CHEMBL6114947, “Navigating cancer therapy: Harnessing the power of peptide-drug conjugates as precision delivery vehicles” (Eur J Med Chem, 2025)

Assays:
[1] = test system: PANC-1; assay: Antitumor activity against human PANC-1 cells xenografted in BALB/c mouse assessed as reduction in tumor volume at 2 mg/kg, iv administered once every 2 days and measured on day 74 relative to control; type: functional; set-up: scale not given: the % may be the effect or the level left; settings: time 74 day
[2] = Half life in BALB/c mouse plasma at 5 mg/kg, iv by LC-MS/MS analysis

| half-life [2] [h] | SMILES | Activity [1] [%] |
| --- | --- | --- |
| – | COc1cccc2c1C(=O)c1c(O)c3c(c(O)c1C2=O)C[C@@](O)(C(C)=O)C[C@@H]3O[C@H]1C[C@H](N)[C@H](O)[C@H](C)O1 [DAUNORUBICIN] | 32.2 |
| 29.4 | COc1cccc2c1C(=O)c1c(O)c3c(c(O)c1C2=O)C[C@@](O)(C(=O)CO)C[C@@H]3O[C@H]1C[C@H](N)[C@H](O)[C@H](C)O1 [DOXORUBICIN] | – |
